The values that follow come from PubChem BioAssay AID1996.

The term kinetic solubility denotes solubility judged after dilution from a stock solution rather than from solid.

In brackets after ≈: the same amount, converted by molar mass.

The conditions of this data set: buffer; pH 7.4; 200.0 µM.
In the case of `CCN1CCN(S(=O)(=O)c2ccc3c4c(cccc24)C(=O)N3CC)CC1`, the kinetic solubility was over 56 µg/mL.
Compound `CC(Oc1ccccc1)C(=O)N1CCN=C1SCc1ccccc1F` (stereo not given) showed a solubility (kinetic) of 11.4 µg/mL (≈ 31.8 µM).
The value for `CCCCNC(=O)CCC(=O)N1CCN(C(c2ccccc2)c2ccccc2)CC1.Cl` was over 66.6 µg/mL; that for `CCOC(=O)Cc1nc2nc(C)cc(C)n2n1` was over 35.1 µg/mL.
Compound `Cc1ccc(NC(=O)CN2CCN(Cc3ccccc3)CC2)cc1` yielded a solubility (kinetic) of over 48.5 µg/mL.
As for `COc1ccc(OC)c(/C=C(\C)C(=O)c2c(C)cc(C)[nH]c2=O)c1`, the solubility (kinetic) is 40.4 µg/mL (≈ 123 µM).
The figure for `COc1cc(S(=O)(=O)N(C)C2CCCCC2)c(C)cc1C` is 1.5 µg/mL (≈ 4.82 µM); for `O=C(NCC(=O)N1CCN(c2ccccc2)CC1)c1cccs1` it is over 49.4 µg/mL.
`CCN1CCN(C(=O)/C(=C/c2cccs2)NC(=O)c2ccc(C)c(C)c2)CC1` registered a kinetic solubility of 48.5 µg/mL (≈ 122 µM).
`CCOc1ncccc1C(=O)NCc1ccccc1F` registered a kinetic solubility of over 41.1 µg/mL.
Compound `Cn1c(N)c(C(=O)CSc2nnc3n2CCCCC3)c(=O)n(C)c1=O` had a kinetic solubility of over 54.7 µg/mL.
Compound `Cc1cccc(C)c1NC(=O)CNC(=O)C1CCCC1` came in with a kinetic solubility of over 41.2 µg/mL.
As for `O=C(Cc1ccccc1[N+](=O)[O-])N1CCOCC1`, the kinetic solubility is over 37.5 µg/mL.
The figure for `COc1ccc(OCC2NCCc3cc(OC)c(OC)cc32)cc1` (stereo not given) is 42 µg/mL (≈ 128 µM); for `O=c1ccn(CCc2c[nH]c3ccccc23)c2c1CCCC2` it is over 43.9 µg/mL; for `COc1ccc2[nH]cc(CCNC(=O)Cc3c(F)cccc3Cl)c2c1` it is 3.9 µg/mL (≈ 10.8 µM).
In turn, `CC(C(=O)Nc1ccccc1)N(C)Cc1cccs1` (stereo not given) displayed a solubility (kinetic) of 33.6 µg/mL (≈ 122 µM). This solubility kinetic lies about 8.6-fold higher than the previous one.
`Cc1cc(C)cc(NC(=O)Cn2cc(C=O)c3ccccc32)c1`: the kinetic solubility was under 0.3 µg/mL.
`COc1cc(Br)c(Br)c(Br)c1N` registered a solubility (kinetic) of 0.9 µg/mL (≈ 2.5 µM).
Consider `Cc1cc2ccccn2c1C(=O)Nc1cccc(Cl)c1`, for which the solubility (kinetic) is under 0.3 µg/mL.
The value for `O=C(CNC(=O)c1ccncc1)N/N=C/c1ccc(Br)cc1` was over 54.2 µg/mL; that for `COc1ccccc1NCCC(=O)OCC(=O)Nc1ccccc1F` was over 52 µg/mL; that for `Cc1ccc(NC(=O)c2ccc(S(=O)(=O)N3CCOCC3)cc2)cc1` was 3.6 µg/mL (≈ 9.99 µM).
`CC1CC(C)CN(C(=O)CN2C(=O)NC3(CCCCCC3)C2=O)C1` (stereo not given) had a kinetic solubility of over 50.3 µg/mL.
For the compound `CC(NC(=O)COc1cccnc1[N+](=O)[O-])c1ccc(F)cc1` (stereo not given), the solubility (kinetic) was over 47.9 µg/mL.
The value for `O=C(CN1C(=O)c2ccccc2C1=O)Nc1cccc(O)c1` was 37 µg/mL (≈ 125 µM); that for `CC(C)(CO)NC(=O)C12CC3CC(CC(Br)(C3)C1)C2` was over 49.5 µg/mL; that for `CCn1c(CO)nc2c1c(=O)[nH]c(=O)n2Cc1ccccc1` was over 45 µg/mL.
`CCCCCCCCCC(=O)N[C@H](CN1CCOCC1)[C@H](O)c1ccccc1.Cl` came in with a solubility (kinetic) of over 64.1 µg/mL.
Regarding `Cc1occc1C(=O)Nc1ccccc1C#N`, the kinetic solubility was over 33.9 µg/mL.
Take `CCOC(=O)N1CCN(C(=O)C(C)NC(=O)c2ccco2)CC1` (stereo not given): the solubility (kinetic) came out at 44.3 µg/mL (≈ 137 µM).
The figure for `O=C(C1COc2ccccc2O1)N1CCN(c2ccc([N+](=O)[O-])cc2)CC1` (stereo not given) is 7.7 µg/mL (≈ 20.8 µM); for `CCOC(=O)C1=C(COC(=O)c2ccc([N+](=O)[O-])s2)NC(=O)NC1C` (stereo not given) it is over 55.4 µg/mL.
Consider `COc1ccc(C(=O)COC(=O)CNC(=O)c2ccc(C)s2)c(OC)c1`, for which the kinetic solubility was over 56.6 µg/mL.
For the compound `CC(=O)c1ccc(OCC(=O)N2CCCC2c2ccc3c(c2)OCCCO3)cc1` (stereo not given), the kinetic solubility amounted to 49.2 µg/mL (≈ 124 µM).
Regarding `COCCNc1c2c(nc3ccccc13)CCC2.Cl`, the kinetic solubility was over 41.8 µg/mL.
With `CCC(C)NC(=O)c1ccc2c(Cl)c3c(nc2c1)CCC3` (stereo not given), the kinetic solubility worked out at 9.9 µg/mL (≈ 32.7 µM).
In turn, `COc1ccc(CC(=O)Oc2ccc(C#N)cc2)cc1` gave a solubility (kinetic) of over 40.1 µg/mL.
The compound `Cc1cc(N2C(=O)Cc3ccccc3C2=O)ccc1C(C)C` returned a kinetic solubility of 35 µg/mL (≈ 119 µM).
Consider `Cc1ccc2c(COC(=O)CNS(=O)(=O)c3ccccc3)cc(=O)oc2c1`, for which the solubility (kinetic) was 21.6 µg/mL (≈ 55.8 µM).
